According to the kinase profiling compilation of Christmann-Franck et al. (2016):

How the values were obtained:
Experiment in all cases: KINOMEscan competition binding
Conditions in all cases: compound 10.0 µM
MAP3K6 (human) = MAP3K6 (human) (UniProt O95382)
[1] = test system: ABL1 (human), P00519 [Q252H]
[2] = test system: ABL1 (human), P00519 [T315I]
ABL1 (human) = ABL1 (human) (UniProt P00519)
RPS6KA3 KD2 (human) = RPS6KA3 KD2 (human) (UniProt P51812)
GSG2 (human) = GSG2 (human) (UniProt Q8TF76)
BUB1 (human) = BUB1 (human) (UniProt O43683)
WNK3 (human) = WNK3 (human) (UniProt Q9BYP7)
WNK1 (human) = WNK1 (human) (UniProt Q9H4A3)
SGK1 (human) = SGK1 (human) (UniProt O00141)

Chain of MAP3K6 (human) (O95382 whole entry, looked up): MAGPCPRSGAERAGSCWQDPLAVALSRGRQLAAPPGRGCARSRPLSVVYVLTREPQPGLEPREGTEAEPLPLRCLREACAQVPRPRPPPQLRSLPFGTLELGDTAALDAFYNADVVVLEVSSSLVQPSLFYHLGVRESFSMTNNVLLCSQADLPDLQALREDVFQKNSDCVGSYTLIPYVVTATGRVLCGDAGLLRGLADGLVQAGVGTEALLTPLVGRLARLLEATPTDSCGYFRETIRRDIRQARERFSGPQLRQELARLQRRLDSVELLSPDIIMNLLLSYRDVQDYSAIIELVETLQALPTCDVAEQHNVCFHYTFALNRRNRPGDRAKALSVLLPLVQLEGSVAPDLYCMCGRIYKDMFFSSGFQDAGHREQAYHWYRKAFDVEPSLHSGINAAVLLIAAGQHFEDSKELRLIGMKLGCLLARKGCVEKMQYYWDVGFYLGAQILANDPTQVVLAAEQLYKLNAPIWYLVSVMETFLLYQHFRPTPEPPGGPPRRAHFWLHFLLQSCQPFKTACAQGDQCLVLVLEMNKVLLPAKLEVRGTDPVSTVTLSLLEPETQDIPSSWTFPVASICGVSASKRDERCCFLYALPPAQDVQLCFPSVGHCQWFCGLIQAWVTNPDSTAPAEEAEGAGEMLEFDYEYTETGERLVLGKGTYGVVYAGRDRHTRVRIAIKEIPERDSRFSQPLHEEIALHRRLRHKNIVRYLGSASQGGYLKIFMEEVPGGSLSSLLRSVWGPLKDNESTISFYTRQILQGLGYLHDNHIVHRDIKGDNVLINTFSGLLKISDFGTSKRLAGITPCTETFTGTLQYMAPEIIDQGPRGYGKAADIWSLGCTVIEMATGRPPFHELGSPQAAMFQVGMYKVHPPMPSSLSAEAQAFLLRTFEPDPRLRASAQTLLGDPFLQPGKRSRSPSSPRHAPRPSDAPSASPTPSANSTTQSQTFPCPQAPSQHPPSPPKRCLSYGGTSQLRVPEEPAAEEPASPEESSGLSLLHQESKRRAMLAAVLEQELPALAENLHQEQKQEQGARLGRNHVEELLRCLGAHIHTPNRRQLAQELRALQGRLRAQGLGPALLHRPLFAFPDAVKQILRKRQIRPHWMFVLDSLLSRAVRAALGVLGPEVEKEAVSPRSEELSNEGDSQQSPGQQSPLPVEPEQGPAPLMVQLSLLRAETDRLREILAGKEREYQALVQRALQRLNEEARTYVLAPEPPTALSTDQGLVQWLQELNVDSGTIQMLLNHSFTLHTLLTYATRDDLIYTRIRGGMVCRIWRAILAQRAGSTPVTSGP
Chain of WNK3 (human) (Q9BYP7 whole entry, looked up): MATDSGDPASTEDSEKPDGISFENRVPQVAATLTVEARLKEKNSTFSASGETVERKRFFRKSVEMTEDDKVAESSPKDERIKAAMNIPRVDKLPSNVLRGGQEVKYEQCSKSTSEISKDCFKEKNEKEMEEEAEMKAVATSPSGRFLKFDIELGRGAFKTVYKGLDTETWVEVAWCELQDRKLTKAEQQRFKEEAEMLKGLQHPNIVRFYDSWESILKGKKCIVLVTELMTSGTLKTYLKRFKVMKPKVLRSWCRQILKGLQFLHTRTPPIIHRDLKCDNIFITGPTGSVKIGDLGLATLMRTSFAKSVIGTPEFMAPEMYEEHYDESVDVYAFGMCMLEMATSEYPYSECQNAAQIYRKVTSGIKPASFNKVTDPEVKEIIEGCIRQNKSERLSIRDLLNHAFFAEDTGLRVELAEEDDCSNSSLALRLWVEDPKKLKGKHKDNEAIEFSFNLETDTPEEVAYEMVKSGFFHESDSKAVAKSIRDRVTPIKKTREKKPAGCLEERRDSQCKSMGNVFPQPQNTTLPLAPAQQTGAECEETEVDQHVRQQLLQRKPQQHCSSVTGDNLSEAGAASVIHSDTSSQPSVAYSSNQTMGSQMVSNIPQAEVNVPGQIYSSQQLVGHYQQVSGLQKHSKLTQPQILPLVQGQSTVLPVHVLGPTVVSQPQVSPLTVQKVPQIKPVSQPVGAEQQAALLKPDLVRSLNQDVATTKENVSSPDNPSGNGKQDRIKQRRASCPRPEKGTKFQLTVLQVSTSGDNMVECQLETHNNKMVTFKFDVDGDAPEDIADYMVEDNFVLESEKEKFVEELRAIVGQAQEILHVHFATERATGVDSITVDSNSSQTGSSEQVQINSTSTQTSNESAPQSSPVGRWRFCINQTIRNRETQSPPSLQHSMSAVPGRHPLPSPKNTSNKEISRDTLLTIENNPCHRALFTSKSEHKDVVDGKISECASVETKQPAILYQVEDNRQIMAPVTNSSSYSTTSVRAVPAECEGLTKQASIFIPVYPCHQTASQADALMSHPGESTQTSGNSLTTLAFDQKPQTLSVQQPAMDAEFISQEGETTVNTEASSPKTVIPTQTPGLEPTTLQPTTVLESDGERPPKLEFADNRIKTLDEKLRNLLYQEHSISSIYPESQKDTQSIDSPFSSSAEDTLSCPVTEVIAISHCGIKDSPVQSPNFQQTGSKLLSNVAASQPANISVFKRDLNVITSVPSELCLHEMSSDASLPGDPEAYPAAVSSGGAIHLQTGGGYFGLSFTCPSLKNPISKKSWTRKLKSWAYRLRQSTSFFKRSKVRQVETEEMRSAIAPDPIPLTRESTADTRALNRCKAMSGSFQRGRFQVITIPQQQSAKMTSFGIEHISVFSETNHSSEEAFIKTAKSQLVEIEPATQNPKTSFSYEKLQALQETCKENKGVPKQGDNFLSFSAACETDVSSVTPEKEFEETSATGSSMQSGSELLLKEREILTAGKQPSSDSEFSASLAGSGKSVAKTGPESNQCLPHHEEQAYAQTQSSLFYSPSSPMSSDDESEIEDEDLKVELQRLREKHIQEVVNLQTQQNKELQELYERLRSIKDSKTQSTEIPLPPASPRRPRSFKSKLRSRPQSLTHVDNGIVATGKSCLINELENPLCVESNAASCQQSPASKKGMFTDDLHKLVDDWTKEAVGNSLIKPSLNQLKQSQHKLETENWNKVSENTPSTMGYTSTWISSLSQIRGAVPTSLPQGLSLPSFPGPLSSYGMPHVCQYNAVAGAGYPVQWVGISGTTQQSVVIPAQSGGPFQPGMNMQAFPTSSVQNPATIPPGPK
Chain of GSG2 (human) (Q8TF76 whole entry, looked up): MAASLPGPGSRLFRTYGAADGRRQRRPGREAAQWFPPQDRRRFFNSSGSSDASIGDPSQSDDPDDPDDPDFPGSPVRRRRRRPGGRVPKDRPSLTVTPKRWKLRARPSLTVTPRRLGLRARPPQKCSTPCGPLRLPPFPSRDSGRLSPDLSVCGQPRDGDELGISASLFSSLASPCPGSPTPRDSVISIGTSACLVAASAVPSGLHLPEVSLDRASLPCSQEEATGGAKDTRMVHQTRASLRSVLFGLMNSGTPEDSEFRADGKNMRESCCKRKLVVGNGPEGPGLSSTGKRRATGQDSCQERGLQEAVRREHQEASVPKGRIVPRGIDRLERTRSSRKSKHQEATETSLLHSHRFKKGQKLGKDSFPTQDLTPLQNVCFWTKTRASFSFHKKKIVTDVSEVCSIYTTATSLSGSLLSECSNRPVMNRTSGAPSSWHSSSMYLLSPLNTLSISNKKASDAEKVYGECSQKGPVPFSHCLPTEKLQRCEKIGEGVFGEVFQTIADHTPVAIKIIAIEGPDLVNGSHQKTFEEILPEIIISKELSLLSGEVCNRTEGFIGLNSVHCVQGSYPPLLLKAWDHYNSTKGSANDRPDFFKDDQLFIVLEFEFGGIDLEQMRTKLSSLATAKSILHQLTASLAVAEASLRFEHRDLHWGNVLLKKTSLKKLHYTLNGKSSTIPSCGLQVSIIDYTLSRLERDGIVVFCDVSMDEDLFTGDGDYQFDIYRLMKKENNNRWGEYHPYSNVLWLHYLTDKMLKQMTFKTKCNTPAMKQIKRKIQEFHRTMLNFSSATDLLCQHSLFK
Chain of BUB1 (human) (O43683 whole entry, looked up): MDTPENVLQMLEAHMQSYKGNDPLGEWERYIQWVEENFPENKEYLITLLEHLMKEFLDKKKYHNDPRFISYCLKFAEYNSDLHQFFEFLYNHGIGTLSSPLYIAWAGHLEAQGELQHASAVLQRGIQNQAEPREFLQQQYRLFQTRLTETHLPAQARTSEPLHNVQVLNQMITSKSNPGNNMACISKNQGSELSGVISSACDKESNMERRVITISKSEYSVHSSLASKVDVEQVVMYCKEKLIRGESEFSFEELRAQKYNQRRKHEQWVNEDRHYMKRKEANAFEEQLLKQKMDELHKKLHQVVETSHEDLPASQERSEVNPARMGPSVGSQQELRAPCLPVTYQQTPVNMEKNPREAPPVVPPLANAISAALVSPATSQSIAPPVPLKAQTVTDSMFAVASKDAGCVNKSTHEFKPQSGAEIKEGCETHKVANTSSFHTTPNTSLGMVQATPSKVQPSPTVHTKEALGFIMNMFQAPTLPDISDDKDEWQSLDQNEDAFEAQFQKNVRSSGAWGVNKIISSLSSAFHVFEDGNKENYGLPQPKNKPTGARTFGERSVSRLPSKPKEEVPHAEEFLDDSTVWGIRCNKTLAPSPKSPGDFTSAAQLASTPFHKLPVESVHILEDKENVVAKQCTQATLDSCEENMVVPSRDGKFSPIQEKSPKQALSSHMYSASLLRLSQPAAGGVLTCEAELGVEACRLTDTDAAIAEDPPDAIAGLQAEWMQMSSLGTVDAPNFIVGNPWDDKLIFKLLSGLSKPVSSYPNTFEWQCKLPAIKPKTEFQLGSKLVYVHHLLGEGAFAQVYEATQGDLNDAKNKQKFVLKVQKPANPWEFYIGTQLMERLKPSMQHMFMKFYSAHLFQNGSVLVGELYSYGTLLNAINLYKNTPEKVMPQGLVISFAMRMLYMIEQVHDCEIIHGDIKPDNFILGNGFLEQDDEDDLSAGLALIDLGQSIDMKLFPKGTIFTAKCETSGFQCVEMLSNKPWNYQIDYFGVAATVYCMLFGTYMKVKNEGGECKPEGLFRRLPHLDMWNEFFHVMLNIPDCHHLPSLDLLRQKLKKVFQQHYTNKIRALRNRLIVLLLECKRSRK

Compound | kinase still bound, per cent of control (MAP3K6 (human)) [%] | kinase still bound, per cent of control [1] [%] | kinase still bound, per cent of control [2] [%] | kinase still bound, per cent of control (ABL1 (human)) [%] | other results
Cn1c(=O)n(-c2ccc(C(C)(C)C#N)cc2)c2c3cc(-c4cnc5ccccc5c4)ccc3ncc21 | 100 | 100 | 100 | 100 | –
COc1cc(N2CCN(C)CC2)ccc1Nc1nc(N)c(C(=O)c2c(Cl)cccc2Cl)s1 | 100 | – | – | – | –
C=CC(=O)Nc1cccc(Oc2nc(Nc3ccc(N4CCN(C)CC4)cc3OC)ncc2Cl)c1 | – | 100 | 100 | 100 | –
COc1cc(C(=O)NC2CCN(C)CC2)ccc1Nc1ncc2c(n1)N(C1CCCC1)CCC(=O)N2C(C)C | 100 | 100 | 100 | 100 | –
Nc1ccc(-c2ccc3ncc4ccc(=O)n(-c5cccc(C(F)(F)F)c5)c4c3c2)cn1 | 100 | – | – | – | –
O=C(NC1CC1)c1cccc(-c2ccc3c(NC(=O)C4CC4)n[nH]c3c2)c1 | 86 | – | – | – | –
Cc1cc([C@@H](C)Nc2ccccc2C(=O)O)c2nc(N3CCOCC3)cc(=O)n2c1 | 95 | – | – | – | –
Cc1ccc(NC(=O)c2cccc(C(C)(C)C#N)c2)cc1Nc1ccc2ncn(C)c(=O)c2c1 | 100 | – | – | – | –
CCN1CCN(Cc2ccc(Nc3ncc4c(n3)N(C)c3ccccc3C(=O)N4C)cc2C(F)(F)F)CC1 | 100 | – | – | – | –
N#Cc1c(NC(=O)c2cccc3ccccc23)sc2c1CCCC2 | 93 | – | – | – | kinase still bound, per cent of control (RPS6KA3 KD2 (human)): 100%; kinase still bound, per cent of control (GSG2 (human)): 100%; kinase still bound, per cent of control (BUB1 (human)): 100%; kinase still bound, per cent of control (WNK3 (human)): 100%; kinase still bound, per cent of control (WNK1 (human)): 89%; kinase still bound, per cent of control (SGK1 (human)): 100%
C=CC(=O)Nc1cccc(Nc2nc(N[C@H]3CC[C@H](N(C)C)CC3)nc3c2ncn3C(C)C)c1 | 86 | – | – | – | –
COc1cc(C(=O)NC2CCN(C)CC2)ccc1Nc1ncc2c(n1)N(C1CCCC1)C(C)CC(=O)N2C (stereo not given) | – | 100 | 100 | 100 | –
CN(C)C/C=C/C(=O)Nc1cccc(Nc2ncc3c(n2)N(C)c2ccccc2C(=O)N3C)c1 | 94 | – | – | – | –
CCC(=O)N1CCN(c2ccc(-n3c(=O)ccc4cnc5ccc(-c6cnc7ccccc7c6)cc5c43)cc2C(F)(F)F)CC1 | 100 | – | – | 60 | –
Cc1ccc2nc(NCCN)c3ncc(C)n3c2c1 | 100 | – | 100 | – | –
CC[C@@H]1C(=O)N(C)c2cnc(Nc3ccc(C(=O)NC4CCN(C)CC4)cc3OC)nc2N1C1CCCC1 | – | 100 | 100 | 100 | –
OCCCNc1cc(-c2ccnc(Nc3cccc(Cl)c3)n2)ccn1 | 100 | 100 | 100 | 100 | –
O=C(NOC[C@H](O)CO)c1ccc(F)c(F)c1Nc1ccc(I)cc1F | 95 | – | – | – | kinase still bound, per cent of control (RPS6KA3 KD2 (human)): 100%; kinase still bound, per cent of control (GSG2 (human)): 100%; kinase still bound, per cent of control (BUB1 (human)): 100%; kinase still bound, per cent of control (WNK3 (human)): 100%; kinase still bound, per cent of control (WNK1 (human)): 92%; kinase still bound, per cent of control (SGK1 (human)): 100%
O=C(O)c1ccc(Nc2ncc3c(n2)-c2ccc(Cl)cc2C(c2c(F)cccc2F)=NC3)cc1 | 99 | – | – | – | –
C[C@@H](Oc1cc(-n2cnc3ccc(CN4CCN(C)CC4)cc32)sc1C(N)=O)c1ccccc1C(F)(F)F | 75 | – | – | – | –
C=CC(=O)Nc1cc(NC(=O)c2ccc(C)c(NC(=O)c3ccno3)c2)cc(C(F)(F)F)c1 | 83 | – | – | – | –
O=C1Nc2ccc(I)cc2/C1=C/c1cc(Br)c(O)c(Br)c1 | 100 | – | – | – | –
CCOc1cc2ncc(C#N)c(Nc3ccc(OCc4ccccn4)c(Cl)c3)c2cc1NC(=O)/C=C/CN(C)C | 87 | 71 | – | 100 | –
Cc1ccc(C(=O)Nc2cccc(C(F)(F)F)c2)cc1Nc1cncc(C(N)=O)c1 | – | 100 | 100 | 100 | –
CCCS(=O)(=O)Nc1ccc(F)c(C(=O)c2c[nH]c3ncc(-c4ccc(Cl)cc4)cc23)c1F | 100 | – | 79 | 57 | –
